From patent publication US20070244006A1, “Fungicidal Mixtures” (priority 2004, published 2007)

Experiments:
[1] = tested on: Pyrenophora teres; assay: Activity against net blotch of barley caused by Pyrenophora teres, 1 day protective application; format: in vivo, Pyrenophora [syn. Drechslera] teres; settings: barley seedlings cultivar Hanna, inoculated 24 hours after treatment
Experimental: (§1) The active compounds, separately or jointly, were prepared as a stock solution comprising 0.25% by weight of active compound in acetone or DMSO. 1% by weight of the emulsifier Uniperol® EL (wetting agent having emulsifying and dispersant action based on ethoxylated alkylphenols) was added to this solution, and the mixture was diluted with water to the desired concentration.
Leaves of potted barley seedlings of the cultivar “Hanna” were sprayed to runoff point with an aqueous suspension having the concentration of active compound stated below. 24 hours after the spray coating had dried on, the test plants were inoculated with an aqueous spore suspension of Pyrenophora [syn. Drechslera] teres, the net blotch pathogen. The test plants were then placed in a greenhouse at temperatures between 20 and 24° C. and at 95 to 100% relative atmospheric humidity. After 6 days, the extent of the development of the disease was determined visually in % infection of the entire leaf area.
(§2) Evaluation was carried out analogously to example 1.

[2] = tested on: Plasmopara viticola; assay: Activity against peronospora of grapevines caused by Plasmopara viticola, 9 day protective application; format: in vivo; settings: potted vines, inoculated 9 days after treatment
Experimental: as §1
Leaves of potted vines were sprayed to runoff point with an aqueous suspension having the concentration of active compound stated below. To be able to assess the persistency of the substances, the plants were, after the spray coating had dried on, placed in a greenhouse for 9 days. Only then were the leaves inoculated with an aqueous zoospore suspension of Plasmopara viticola. The grapevines were then initially placed in a water-vapor-saturated chamber at 24° C. for 48 hours and then in a greenhouse at temperatures between 20 and 30° C. for 5 days. After this time, the plants were again placed in a humid chamber for 16 hours, to promote sporangiophore eruption. The extent of the development of the infection on the undersides of the leaves was then determined visually.
as §2

[3] = tested on: Venturia inaequalis; assay: Activity against scab on apple leaves caused by Venturia inaequalis, protective application; format: in vivo; settings: inoculated 12 days after treatment
Experimental: as §1
Leaves of apples were sprayed to runoff point with an aqueous suspension having the concentration of active compound stated below. After 12 days, the treated plants were inoculated with an aqueous spore suspension of Venturia inaequalis. The apples were then initially placed in a water-vapor-saturated chamber at 24° C. for 48 hours and then in a greenhouse at temperatures between 20 and 24° C. for 20 days. The extent of the development of the infection on the upper sides of the leaves was then determined visually.
The visually determined percentages of infected leaf areas were converted into efficacies in % of the untreated control:
The efficacy (E) is calculated as follows using Abbot's formula: E=(1−α/β)[…] α corresponds to the fungal infection of the treated plants in % and β corresponds to the fungal infection of the untreated (control) plants in % An efficacy of 0 means that the infection level of the treated plants corresponds to that of the untreated control plants; an efficacy of 100 means that the treated plants were not infected.
The expected efficacies of mixtures of active compounds were determined using Colby's formula (Colby, S. R. “Calculating synergistic and antagonistic responses of herbicide Combinations”, Weeds, 15, 20-22, 1967) and compared with the observed efficacies.
Colby's formula: E=x+y−x·y/100
E expected efficacy, expressed in % of the untreated control, when using the mixture of the active compounds A and B at the concentrations a and b x efficacy, expressed in % of the untreated control, when using the active compound A at the concentration a y efficacy, expressed in % of the untreated control, when using the active compound B at the concentration b

Row | SMILES | Efficacy in % of the untreated control ([2]; 50 ppm in the spray liquor) [%] | Efficacy in % of the untreated control ([3]; 50 ppm in the spray liquor) [%] | Efficacy in % of the untreated control ([1]; 3.1 ppm in the spray liquor) [%] | other results
1 | CC(=NNC(=O)Nc1cc(F)cc(F)c1)c1ncccc1C(=O)O [diflufenzopyr (III.1), 2-{1-[4-(3,5-difluorophenyl)semicarbazono]ethyl}nicotinic acid] |  |  |  | Efficacy in % of the untreated control ([1]; 0.031 ppm in the spray liquor): 0%
2 | CC1CCN(c2c(-c3c(F)cc(F)cc3F)c(Cl)nc3ncnn23)CC1 [I-1, 5-chloro-7-(4-methylpiperidin-1-yl)-6-(2,4,6-trifluorophenyl)-[1,2,4]triazolo[1,5-a]pyrimidine] | 25 | 48 | 66 | Efficacy in % of the untreated control ([2]; 25 ppm in the spray liquor): 13%; Efficacy in % of the untreated control ([3]; 25 ppm in the spray liquor): 18%
3 | CCC(=O)C1=C([O-])CC(C(=O)[O-])CC1=O.[Ca+2] (stereo not drawn) [prohexadione-Ca (IIa.1), prohexadione-Ca] | 0 | 4 |  | Efficacy in % of the untreated control ([2]; 100 ppm in the spray liquor): 0%; Efficacy in % of the untreated control ([3]; 100 ppm in the spray liquor): 29%
4 | C[N+](C)(C)CCCl [chlormequat chloride (IIc.1), chlormequat chloride] |  |  | 0 | Efficacy in % of the untreated control ([1]; 6.3 ppm in the spray liquor): 0%
